# pIC50, pKi: −log10 of the molar value. The source made the active and inactive calls. No cut-off for these calls is given here.
# How the values were obtained:
# [1] = biological target: T1, Bcl-2-related protein A1 (Homo sapiens, UniProt Q16548); assay: Displacement of fluorescein tagged BID BH3 peptide from His-tagged recombinant BFL-1 (1 to 151 residues) (unknown origin) expressed in Escherichia coli BL21 (DE3) assessed as inhibition constant incubated for 24 hrs by fluorescence polarization-based competitive binding assay
# T1 sequence (Q16548 whole entry): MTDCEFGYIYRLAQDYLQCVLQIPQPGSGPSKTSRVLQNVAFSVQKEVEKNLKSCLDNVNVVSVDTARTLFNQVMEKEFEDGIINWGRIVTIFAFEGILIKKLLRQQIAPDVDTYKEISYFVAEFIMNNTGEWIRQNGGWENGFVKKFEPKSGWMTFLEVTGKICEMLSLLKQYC
# [2] = biological target: Induced myeloid leukemia cell differentiation protein Mcl-1 (Homo sapiens, UniProt Q07820); assay: Displacement of fluorescein tagged BID BH3 peptide from human MCL-1 (172 to 327 residues) expressed in Escherichia coli BL21 (DE3) assessed as inhibition constant incubated for 1.5 hrs by fluorescence polarization-based competitive binding assay
# [3] = biological target: Apoptosis regulator Bcl-2 (Homo sapiens, UniProt P10415); assay: Displacement of fluorescein tagged BIM peptide from N-terminal His tagged human BCL-2 (1 to 170 residues) expressed in Escherichia coli BL21 (DE3) assessed as inhibition constant incubated for 1.5 hrs by fluorescence polarization-based competitive binding assay
# [4] = biological target: Transcriptional enhancer factor TEF-4 (Homo sapiens, UniProt Q15562); assay: Displacement of FAM- labeled YAP1 peptide from TEAD2 (217 to 447 residues) (unknown origin) expressed in Escherichia coli BL21 (DE3) assessed as inhibition constant incubated for 1.5 hrs by fluorescence polarization-based competitive binding assay
# [5] = biological target: E3 ubiquitin-protein ligase Mdm2 (Homo sapiens, UniProt Q00987); assay: Displacement of FAM- labeled PDI peptide from MDM2 (1 to 118 residues) (unknown origin) expressed in Escherichia coli BL21 (DE3) assessed as inhibition constant incubated for 1.5 hrs by fluorescence polarization-based competitive binding assay
# [6] = biological target: T2, Bromodomain-containing protein 2 (Homo sapiens, UniProt P25440); assay: Binding affinity to recombinant human BRD2 BD1 (72-205 residues) assessed as inhibition constant by fluorescence polarization assay
# [7] = biological target: T2, Bromodomain-containing protein 2; assay: Binding affinity to recombinant human BRD2 BD2 (349-460 residues) assessed as inhibition constant by fluorescence polarization assay
# [8] = system: U-937; assay: Induction of apoptosis in human U-937 cells assessed as increase in cytochrome c level incubated for 3 hrs by immunoblotting analysis; format: functional, cell-based
# [9] = system: U-937; assay: Induction of apoptosis in human U-937 cells assessed as decrease in MCL-1 protein expression after 24 hrs by Western blot analysis; format: functional, cell-based; conditions: DDE = dose-dependent effect
# [10] = system: U-937; assay: Induction of apoptosis in human U-937 cells assessed as early apoptotic cells at 60 uM measured after 4 hrs by Annexin PI staining based flow cytometry method (reference value: 1.95 %); format: functional
# [11] = system: U-937; assay: Induction of apoptosis in human U-937 cells assessed as early apoptotic cells at 10 uM measured after 4 hrs by Annexin PI staining based flow cytometry method (reference value: 1.95 %); format: functional
# [12] = system: U-937; assay: Induction of apoptosis in human U-937 cells assessed as late apoptotic cells at 20 uM measured after 4 hrs by Annexin PI staining based flow cytometry method (reference value: 1.62 %); format: functional
# [13] = system: U-937; assay: Induction of apoptosis in human U-937 cells assessed as necrotic cells at 20 uM measured after 4 hrs by Annexin PI staining based flow cytometry method (reference value: 0.00 %); format: functional
# [14] = system: U-937; assay: Induction of apoptosis in human U-937 cells assessed as early apoptotic cells at 40 uM measured after 4 hrs by Annexin PI staining based flow cytometry method (reference value: 1.95 %); format: functional
# [15] = system: U-937; assay: Induction of apoptosis in human U-937 cells assessed as late apoptotic cells at 40 uM measured after 4 hrs by Annexin PI staining based flow cytometry method (reference value: 1.62 %); format: functional
# [16] = system: Kasumi 1; assay: Growth inhibition of human Kasumi 1 cells incubated for 4 days by WST assay; format: functional, cell-based; conditions: Kasumi 1, 96 h
# [17] = system: K562; assay: Growth inhibition of human K562 cells incubated for 4 days by WST assay; format: functional, cell-based; conditions: K562, 96 h
# [18] = system: MV4-11; assay: Growth inhibition of human MV4-11 cells incubated for 4 days by WST assay; format: functional, cell-based; conditions: MV4-11, 96 h
# [19] = system: RPMI-8226; assay: Upregulation of BFL-1protein expression in human RPMI-8226 cells by Western blotting analysis; format: functional, cell-based
# [20] = system: MV4-11; assay: Upregulation of BFL-1protein expression in human MV4-11 cells by Western blotting analysis; format: functional, cell-based
# [21] = biological target: BCL2A11/BBC3 (Homo sapiens) (UniProt Q16548+Q9BXH1); assay: Inhibition of human BFL-1/PUMA protein-protein interaction in human Kasumi 1 cells assessed as decrease in PUMA protein level at 80 uM measured after 5 hrs by co-immunoprecipitation assay; format: cell-based
# [22] = system: U-937; assay: Induction of apoptosis in human U-937 cells assessed as caspase-3 cleavage measured after 24 hrs by Western blot analysis; format: functional, cell-based; conditions: DDE = dose-dependent effect
# T2 sequence (P25440 whole entry, the tested form may be a part): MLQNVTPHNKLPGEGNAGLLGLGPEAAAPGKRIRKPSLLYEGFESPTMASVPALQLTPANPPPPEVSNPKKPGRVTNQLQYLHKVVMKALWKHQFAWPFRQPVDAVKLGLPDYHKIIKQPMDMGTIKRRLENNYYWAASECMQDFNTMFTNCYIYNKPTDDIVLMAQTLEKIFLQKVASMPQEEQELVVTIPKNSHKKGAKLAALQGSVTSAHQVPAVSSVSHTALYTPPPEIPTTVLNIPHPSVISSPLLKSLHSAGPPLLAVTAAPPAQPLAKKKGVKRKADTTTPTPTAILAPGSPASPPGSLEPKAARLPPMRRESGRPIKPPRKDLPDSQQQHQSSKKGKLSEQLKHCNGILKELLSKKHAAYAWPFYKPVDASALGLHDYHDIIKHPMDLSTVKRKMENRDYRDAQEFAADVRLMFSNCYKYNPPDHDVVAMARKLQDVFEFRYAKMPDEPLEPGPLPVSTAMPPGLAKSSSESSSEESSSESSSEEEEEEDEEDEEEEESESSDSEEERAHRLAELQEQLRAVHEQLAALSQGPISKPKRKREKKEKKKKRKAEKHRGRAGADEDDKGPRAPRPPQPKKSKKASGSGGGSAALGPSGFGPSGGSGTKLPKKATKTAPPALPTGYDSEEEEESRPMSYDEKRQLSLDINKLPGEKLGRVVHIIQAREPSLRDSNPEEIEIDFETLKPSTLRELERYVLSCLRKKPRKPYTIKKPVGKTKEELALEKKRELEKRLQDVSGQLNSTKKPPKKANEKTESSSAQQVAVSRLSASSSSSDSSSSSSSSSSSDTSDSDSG
# Chain of Apoptosis regulator Bcl-2 (P10415 whole entry, the tested form may be a part): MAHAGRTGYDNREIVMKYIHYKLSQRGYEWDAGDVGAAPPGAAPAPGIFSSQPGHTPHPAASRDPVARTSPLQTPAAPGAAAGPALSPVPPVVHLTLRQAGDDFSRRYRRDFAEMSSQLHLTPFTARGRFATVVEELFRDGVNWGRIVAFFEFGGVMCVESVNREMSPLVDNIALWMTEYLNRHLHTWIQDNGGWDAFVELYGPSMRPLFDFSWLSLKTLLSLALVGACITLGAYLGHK
# Chain of BCL2A11/BBC3 (Homo sapiens) (Q9BXH1 whole entry, looked up, one chain of several): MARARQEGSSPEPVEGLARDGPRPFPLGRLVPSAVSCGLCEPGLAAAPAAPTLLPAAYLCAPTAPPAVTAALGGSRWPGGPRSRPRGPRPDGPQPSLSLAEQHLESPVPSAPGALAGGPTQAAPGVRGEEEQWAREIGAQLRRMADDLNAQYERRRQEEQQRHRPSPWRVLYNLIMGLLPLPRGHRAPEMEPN
# Chain of Induced myeloid leukemia cell differentiation protein Mcl-1 (Q07820 whole entry, the tested form may be a part): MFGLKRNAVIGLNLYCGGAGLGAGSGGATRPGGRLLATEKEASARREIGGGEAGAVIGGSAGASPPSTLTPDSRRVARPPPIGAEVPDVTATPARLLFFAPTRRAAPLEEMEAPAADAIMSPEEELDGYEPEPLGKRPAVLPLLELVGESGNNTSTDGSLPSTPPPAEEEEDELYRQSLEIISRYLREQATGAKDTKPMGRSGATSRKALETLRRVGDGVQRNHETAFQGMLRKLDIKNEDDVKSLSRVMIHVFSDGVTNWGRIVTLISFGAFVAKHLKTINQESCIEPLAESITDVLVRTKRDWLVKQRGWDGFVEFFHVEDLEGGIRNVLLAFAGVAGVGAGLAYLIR
# Chain of Transcriptional enhancer factor TEF-4 (Q15562 whole entry, the tested form may be a part): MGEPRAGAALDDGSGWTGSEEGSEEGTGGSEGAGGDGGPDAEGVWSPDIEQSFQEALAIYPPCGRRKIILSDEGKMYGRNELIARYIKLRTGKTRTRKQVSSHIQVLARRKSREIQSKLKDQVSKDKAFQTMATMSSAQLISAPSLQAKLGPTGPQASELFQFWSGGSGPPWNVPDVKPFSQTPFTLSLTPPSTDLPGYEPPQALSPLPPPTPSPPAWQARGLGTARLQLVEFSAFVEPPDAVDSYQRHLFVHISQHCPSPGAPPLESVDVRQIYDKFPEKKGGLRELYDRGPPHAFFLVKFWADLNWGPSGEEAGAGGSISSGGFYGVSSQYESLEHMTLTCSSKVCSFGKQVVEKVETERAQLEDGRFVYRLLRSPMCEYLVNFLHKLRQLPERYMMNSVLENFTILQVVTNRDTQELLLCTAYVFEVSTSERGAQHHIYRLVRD
# Chain of E3 ubiquitin-protein ligase Mdm2 (Q00987 whole entry, the tested form may be a part): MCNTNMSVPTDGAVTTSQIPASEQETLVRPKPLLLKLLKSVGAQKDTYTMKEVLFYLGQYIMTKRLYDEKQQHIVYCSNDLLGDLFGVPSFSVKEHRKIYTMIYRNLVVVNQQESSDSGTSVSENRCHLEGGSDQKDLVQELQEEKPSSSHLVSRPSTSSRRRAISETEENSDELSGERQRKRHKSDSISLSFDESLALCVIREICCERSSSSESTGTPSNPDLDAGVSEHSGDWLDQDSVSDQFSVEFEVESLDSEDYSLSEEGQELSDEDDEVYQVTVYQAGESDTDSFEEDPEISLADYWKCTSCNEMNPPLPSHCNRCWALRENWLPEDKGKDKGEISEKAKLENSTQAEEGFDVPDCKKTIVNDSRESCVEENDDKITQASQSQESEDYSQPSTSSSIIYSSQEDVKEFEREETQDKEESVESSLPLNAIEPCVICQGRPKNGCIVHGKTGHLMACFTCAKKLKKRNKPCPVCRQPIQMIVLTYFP
compound,measurement,setting,value
C=CC(=O)N1CCN(c2c3ccc(-c4cccc(F)c4)cc3nn2Cc2ccccc2)CC1,pKi,[1],6.39
same,pKi,[2],3.95
same,pKi,[3],< 3.40
same,pKi,[4],< 3.40
same,pKi,[5],< 3.40
same,pKi,[6],< 3.40
same,pKi,[7],< 3.40
same,Activity,[8],Active
same,Activity,[9],Dde
same,Activity,[10],4.61%
same,Activity,[11],6.03%
same,Activity,[12],4.05%
same,Activity,[13],1.02%
same,Activity,[14],5.52%
same,Activity,[15],20.83%
same,pIC50,[16],5.26
same,pIC50,[17],5.11
same,pIC50,[18],5.41
same,Activity,[19],Active
same,Activity,[20],Active
same,inhibition,[21],Active
same,Activity,[22],Dde

# Reference: ChEMBL document CHEMBL5154839, “Discovery of a selective and covalent small-molecule inhibitor of BFL-1 protein that induces robust apoptosis in cancer cells” (Eur J Med Chem, 2022)
